Source: patent US9074014B2 (Ipsen Pharma S.A.S., priority 2008, dated 2015)
Where a SMILES comes first, the peptide text is derived from it. Where no end group is shown, it is not given here. [ ]: non-standard residue; d: D form. The star is where a group is joined. Desaminotyrosyl = O=C(CCc1ccc(O)cc1)*; ΔPro = O=C(O)[C@@H]1C=CCN1; Pip = O=C(O)[C@@H]1CCCCN1; Ac6c = NC1(C(=O)O)CCCCC1; Nle = CCCC[C@H](N)C(=O)O; X1 = CCCN1C(=O)CC(*)C1=O; Ac5c = NC1(C(=O)O)CCCC1; Aib = CC(C)(N)C(=O)O

Assays:
[1] = Rat plasma half-life assay; assay type: in vitro ADME; conditions: rat plasma, 37° C., LC-MS; for half-life at 0.1 mg/ml: read-out: Rat Plasma T½ (converted)
Description: (§1) B. Human and Rat Plasma Half-Life Assay
(§2) 50 μL was removed at various times, like at 0, 1, 2, 3, 4, 8, 24, 32, 48, 56, 72 hours, mixed with 5 μL formic acid and 150 μL acetonitrile in a microcentrifuge tube, vertexed, and centrifuged for 10 minutes at 10K rpm. The supernatant was transferred to an injection vial and analyzed by LC-MS. The LC-MS system consisted of an API4000 mass spectrometer with an ESI probe. Positive ion mode and full scan detection were used. HPLC separation was carried out on a Luna 3μ C8 (2), 2×30 mm column with a gradient from 90% A to 90% B in 10 minutes at a flow rate of 0.3 ml/min. Buffer A was 1% formic acid in water and buffer B was 1% formic acid acetonitrile.

[2] = Human plasma half-life assay; assay type: in vitro ADME; conditions: human plasma, 37° C., LC-MS; for half-life at 0.1 mg/ml: read-out: Human Plasma T½ (converted)
Description: as §1, §2

Molecule | half-life at 0.1 mg/ml [1] [h] | half-life at 0.1 mg/ml [2] [h] | Rat Plasma T½ [1] [h] | Human Plasma T½ [2] [h]
Y[Aib]EGTF[Ac6c]SDYSIAMDKIHQQDFVNWLLAQKGKKNDWKHNC(X1)TQ-OH [Example 78, [Aib^2, A6c^7, Cys(Psu)^40]hGIP(1-42)-OH] | 11.2 | 10.1 |  | 
Desaminotyrosyl-AEGTFISDYSI[Aib]MDKIHQQDFVNWLLAQKGKKNDWKHNITQ-OH [Example 101, (4Hppa^1, Aib^13)hGIP(1-42)-OH] | 13.4 | 47.5 |  | 
CC[C@H](C)[C@H](NC(=O)[C@H](CO)NC(=O)[C@H](Cc1ccc(O)cc1)NC(=O)[C@H](CC(=O)O)NC(=O)[C@H](CO)NC(=O)C(C)(C)NC(=O)[C@H](Cc1ccccc1)NC(=O)[C@@H](NC(=O)CNC(=O)[C@H](CCC(=O)O)NC(=O)C(C)(C)NC(=O)[C@@H](N)Cc1ccc(O)cc1)[C@@H](C)O)C(=O)N[C@@H](C)C(=O)N[C@@H](CCSC)C(=O)N[C@@H](CC(=O)O)C(=O)N[C@@H](CCCCN)C(=O)N[C@H](C(=O)N[C@@H](Cc1c[nH]cn1)C(=O)N[C@@H](CCC(N)=O)C(=O)N[C@@H](CCC(N)=O)C(=O)N[C@@H](CC(=O)O)C(=O)N[C@@H](Cc1ccccc1)C(=O)N[C@H](C(=O)N[C@@H](CC(N)=O)C(=O)N[C@@H](Cc1c[nH]c2ccccc12)C(=O)N[C@@H](CC(C)C)C(=O)N[C@@H](CC(C)C)C(=O)N[C@@H](C)C(=O)N[C@@H](CCC(N)=O)C(=O)N[C@@H](CCCCN)C(N)=O)C(C)C)[C@@H](C)CC [Example 16, (Aib^2, 7)hGIP(1-30)-NH2] | > 48 | 43.9 |  | 
Y[Aib]EGTF[Ac6c]SDYSIA[Nle]DKIHQQDFVNWLLAQKGKKNDWKHNITQ-OH [Example 55, (Aib^2, A6c^7, Nle^14)hGIP(1-42)-OH] | 11.7 | 8.8 |  | 
YAPGTFISDYSI[Aib][Nle]DKIHQQDFVNWLLAQKGKKNDWKHNITQ-OH [Example 62, (Pro^3, Aib^13, Nle^14)hGIP(1-42)-OH] | 1.4 | 11.4 |  | 
CC[C@H](C)[C@H](NC(=O)[C@H](CCCCN)NC(=O)[C@H](CC(=O)O)NC(=O)[C@H](CCSC)NC(=O)[C@H](C)NC(=O)[C@@H](NC(=O)C1(NC(=O)[C@H](Cc2ccc(O)cc2)NC(=O)[C@H](CC(=O)O)NC(=O)[C@H](CO)NC(=O)[C@@H](NC(=O)[C@H](Cc2ccccc2)NC(=O)[C@@H](NC(=O)CNC(=O)[C@@H]2CCCN2C(=O)[C@H](C)NC(=O)[C@@H](N)Cc2ccc(O)cc2)[C@@H](C)O)[C@@H](C)CC)CCCC1)[C@@H](C)CC)C(=O)N[C@@H](Cc1c[nH]cn1)C(=O)N[C@@H](CCC(N)=O)C(=O)N[C@@H](CCC(N)=O)C(=O)N[C@@H](CC(=O)O)C(=O)N[C@@H](Cc1ccccc1)C(=O)N[C@H](C(=O)N[C@@H](CC(N)=O)C(=O)N[C@@H](Cc1c[nH]c2ccccc12)C(=O)N[C@@H](CC(C)C)C(=O)N[C@@H](CC(C)C)C(=O)N[C@@H](C)C(=O)N[C@@H](CCC(N)=O)C(=O)N[C@@H](CCCCN)C(=O)NCC(=O)N[C@@H](CCCCN)C(=O)N[C@@H](CCCCN)C(=O)N[C@@H](CC(N)=O)C(=O)N[C@@H](CC(=O)O)C(=O)N[C@@H](Cc1c[nH]c2ccccc12)C(=O)N[C@@H](CCCCN)C(=O)N[C@@H](Cc1c[nH]cn1)C(=O)N[C@@H](CC(N)=O)C(=O)N[C@H](C(=O)N[C@H](C(=O)N[C@@H](CCC(N)=O)C(=O)O)[C@@H](C)O)[C@@H](C)CC)C(C)C [Example 77, (Pro^3, A5c^11)hGIP(1-42)-OH] | 1.5 | 43.3 |  | 
CC[C@H](C)[C@H](NC(=O)[C@H](CO)NC(=O)[C@H](Cc1ccc(O)cc1)NC(=O)[C@H](CC(=O)O)NC(=O)[C@H](CO)NC(=O)C1(NC(=O)[C@H](Cc2ccccc2)NC(=O)[C@@H](NC(=O)CNC(=O)[C@H](CCC(=O)O)NC(=O)C(C)(C)NC(=O)[C@@H](N)Cc2ccc(O)cc2)[C@@H](C)O)CCCC1)C(=O)N[C@@H](C)C(=O)NC1(C(=O)N[C@@H](CC(=O)O)C(=O)N[C@@H](CCCCN)C(=O)N[C@H](C(=O)N[C@@H](Cc2c[nH]cn2)C(=O)N[C@@H](CCC(N)=O)C(=O)N[C@@H](CCC(N)=O)C(=O)N[C@@H](CC(=O)O)C(=O)N[C@@H](Cc2ccccc2)C(=O)N[C@H](C(=O)N[C@@H](CC(N)=O)C(=O)N[C@@H](Cc2c[nH]c3ccccc23)C(=O)N[C@@H](CC(C)C)C(=O)N[C@@H](CC(C)C)C(=O)N[C@@H](C)C(=O)N[C@@H](CCC(N)=O)C(=O)N[C@@H](CCCCN)C(N)=O)C(C)C)[C@@H](C)CC)CCCC1 [Example 35, (Aib^2, A5c^7, 14)hGIP(1-30)-NH2] (H-Y[Aib]EGTF[Ac5c]SDYSIA[Ac5c]DKIHQQDFVNWLLAQK-NH2; N-terminus assumed) | 39.4 | > 48 |  | 
CC[C@H](C)[C@H](NC(=O)[C@H](CO)NC(=O)[C@H](Cc1ccc(O)cc1)NC(=O)[C@H](CC(=O)O)NC(=O)[C@H](CO)NC(=O)[C@@H](NC(=O)[C@H](Cc1ccccc1)NC(=O)[C@@H](NC(=O)CNC(=O)[C@@H]1CCCCN1C(=O)[C@H](C)NC(=O)[C@@H](N)Cc1ccc(O)cc1)[C@@H](C)O)[C@@H](C)CC)C(=O)N[C@@H](C)C(=O)NC1(C(=O)N[C@@H](CC(=O)O)C(=O)N[C@@H](CCCCN)C(=O)N[C@H](C(=O)N[C@@H](Cc2c[nH]cn2)C(=O)N[C@@H](CCC(N)=O)C(=O)N[C@@H](CCC(N)=O)C(=O)N[C@@H](CC(=O)O)C(=O)N[C@@H](Cc2ccccc2)C(=O)N[C@H](C(=O)N[C@@H](CC(N)=O)C(=O)N[C@@H](Cc2c[nH]c3ccccc23)C(=O)N[C@@H](CC(C)C)C(=O)N[C@@H](CC(C)C)C(=O)N[C@@H](C)C(=O)N[C@@H](CCC(N)=O)C(=O)N[C@@H](CCCCN)C(=O)NCC(=O)N[C@@H](CCCCN)C(=O)N[C@@H](CCCCN)C(=O)N[C@@H](CC(N)=O)C(=O)N[C@@H](CC(=O)O)C(=O)N[C@@H](Cc2c[nH]c3ccccc23)C(=O)N[C@@H](CCCCN)C(=O)N[C@@H](Cc2c[nH]cn2)C(=O)N[C@@H](CC(N)=O)C(=O)N[C@H](C(=O)N[C@H](C(=O)N[C@@H](CCC(N)=O)C(=O)O)[C@@H](C)O)[C@@H](C)CC)C(C)C)[C@@H](C)CC)CCCCC1 [Example 72, (hPro^3, A6c^14)hGIP(1-42)-OH] | 0.45 | 10.7 |  | 
YA[Pip]GTFISDYSI[Aib][Nle]DKIHQQDFVNWLLAQKGKKNDWKHNITQ-OH [Example 63, (hPro^3, Aib^13, Nle^14)hGIP(1-42)-OH] | 1.4 | 14.2 |  | 
YA[ΔPro]GTFISDYSI[Aib][Nle]DKIHQQDFVNWLLAQKGKKNDWKHNITQ-OH [Example 64, (Dhp^3, Aib^13, Nle^14)hGIP(1-42)-OH] |  |  | 47.5 | 41.3
CC[C@H](C)[C@H](NC(=O)[C@H](CO)NC(=O)[C@H](Cc1ccc(O)cc1)NC(=O)[C@H](CC(=O)O)NC(=O)[C@H](CO)NC(=O)[C@@H](NC(=O)[C@H](Cc1ccccc1)NC(=O)C(C)(C)NC(=O)CNC(=O)[C@H](CCC(=O)O)NC(=O)C(C)(C)NC(=O)[C@@H](N)Cc1ccc(O)cc1)[C@@H](C)CC)C(=O)N[C@@H](C)C(=O)N[C@@H](CCSC)C(=O)N[C@@H](CC(=O)O)C(=O)N[C@@H](CCCCN)C(=O)N[C@H](C(=O)N[C@@H](Cc1c[nH]cn1)C(=O)N[C@@H](CCC(N)=O)C(=O)N[C@@H](CCC(N)=O)C(=O)N[C@@H](CC(=O)O)C(=O)N[C@@H](Cc1ccccc1)C(=O)N[C@H](C(=O)N[C@@H](CC(N)=O)C(=O)N[C@@H](Cc1c[nH]c2ccccc12)C(=O)N[C@@H](CC(C)C)C(=O)N[C@@H](CC(C)C)C(=O)N[C@@H](C)C(=O)N[C@@H](CCC(N)=O)C(=O)N[C@@H](CCCCN)C(N)=O)C(C)C)[C@@H](C)CC [Example 15, (Aib^2, 5)hGIP(1-30)-NH2] | 46.5 | 28.6 |  | 
